Drawing on patent publication US20070037785A1, “Novel dipeptidyl peptidase IV inhibitors used for functionally influencing different cells and treating immunological, infammatory, neuronal, and other diseases” (priority 2003, published 2007), this text covers IC50 for 80 compounds.

The target of one assay is dipeptidyl peptidase IV (Homo sapiens, UniProt P27487). Put plainly: biochemical. Particulars: values marked with "*" are ID50 values; read-out: IC50DPIV, values marked with "*" = ID50.
Sequence of dipeptidyl peptidase IV (P27487 whole entry, species assumed): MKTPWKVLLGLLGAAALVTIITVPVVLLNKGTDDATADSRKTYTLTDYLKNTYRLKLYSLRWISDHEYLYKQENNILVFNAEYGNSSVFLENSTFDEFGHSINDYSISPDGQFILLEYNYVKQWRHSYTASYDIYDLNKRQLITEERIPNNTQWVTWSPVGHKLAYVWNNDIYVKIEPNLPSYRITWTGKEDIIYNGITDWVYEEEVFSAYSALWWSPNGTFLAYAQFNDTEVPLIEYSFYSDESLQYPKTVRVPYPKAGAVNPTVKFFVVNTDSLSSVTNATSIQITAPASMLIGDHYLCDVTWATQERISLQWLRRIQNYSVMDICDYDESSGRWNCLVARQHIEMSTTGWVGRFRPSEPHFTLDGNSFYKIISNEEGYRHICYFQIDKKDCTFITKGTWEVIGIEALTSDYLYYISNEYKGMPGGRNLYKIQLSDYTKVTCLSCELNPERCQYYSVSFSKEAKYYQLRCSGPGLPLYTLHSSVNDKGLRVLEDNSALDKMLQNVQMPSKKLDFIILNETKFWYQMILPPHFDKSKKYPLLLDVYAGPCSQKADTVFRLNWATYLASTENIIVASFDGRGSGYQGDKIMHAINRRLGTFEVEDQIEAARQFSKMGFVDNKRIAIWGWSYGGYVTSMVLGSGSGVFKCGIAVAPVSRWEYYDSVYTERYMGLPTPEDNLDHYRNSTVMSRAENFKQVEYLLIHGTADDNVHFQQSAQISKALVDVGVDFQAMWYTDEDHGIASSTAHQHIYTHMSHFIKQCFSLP
Take `COc1ccc(-n2c(=O)c3c4c(sc3n3c(SCc5ccc(Br)cc5)nnc23)COC(C)(C)C4)cc1` [D3.113]: the IC50 is 317 µM.

`O=C1c2sc3nnc(-c4ccccc4)c(=O)n3c2C(=O)N1c1ccccc1` [D3.114]: the IC50 stood at 332 µM. As to `CCOC(=O)c1c(NC(=O)CSc2nc(=O)cc(N)n2-c2cccc(C)c2)sc2c1CCC2` [D3.116], the IC50 amounted to 363 µM. On the same count and under the same terms, then `Nc1ccc(C(=O)NNC(=O)c2ccc(N3C(=O)c4ccc(C(=O)NNC(=O)c5ccc([N+](=O)[O-])cc5)cc4C3=O)cc2)cc1` [D3.117], with 402 µM. Take `Nc1nc2ccc(S(=O)(=O)c3ccc4nc(N)sc4c3)cc2s1` [D3.118]: the IC50 was 417 µM. On the same count and under the same terms, then `Cc1ccc(N2C(=O)C3CC(c4ccccc4)=C4C5C=CC(C6C(=O)N(c7ccc(C)cc7C)C(=O)C56)C4C3C2=O)c(C)c1` (centres unmarked) [D3.119], with 527 µM; and `COc1ccc(N2C(=O)CSCC2=O)cc1OC` [D4.004], with 3.1 µM; and `COc1cc(OC)cc(N2C(=O)CSCC2=O)c1` [D4.005], with 3.8 µM. Same read-out and setting: then `CCC(=O)Oc1cccc(N2C(=O)C3C4C=CC(C3C2=O)C2C(=O)N(c3cccc(OC(=O)CC)c3)C(=O)C42)c1` (centres unmarked) [D4.006], with 4.2 µM; and `CC(=O)Nc1ccc(Nc2ccc(N3C(=O)CCCC3=O)cc2[N+](=O)[O-])cc1` [D4.079], with 71.3 µM; and `CC1(C)NCC(c2ccccc2)CC1O` (centres unmarked) [D4.088], with 96.2 µM. Same read-out and setting: then `O=C(Oc1cccc(-n2cnnn2)c1)C1CC1` [D4.089], with 98.4 µM. As to `Oc1ccc(-c2csc(Nc3ncccn3)n2)cc1O` [D4.095], the IC50 was determined as 163 µM. Still for that read-out and setting: the value for `CC(C)c1ccc(N2CC(C(=O)Nc3ccc(Br)cc3Br)CC2=O)cc1` (centres unmarked) [D4.096] was 172 µM; that for `O=C1CSCC(=O)N1c1ccc(F)cc1F` [D4.100] was 216 µM. With `CN(Cc1ccccc1)c1ccc(N2C(=O)CCCC2=O)cc1[N+](=O)[O-]` [D4.101], the IC50 was 231 µM. On the same count and under the same terms, the value for `CCCc1c(C)nc(N)c(C#N)c1-c1ccccc1` [D4.104] was 255 µM; that for `CS(=O)(=O)N1CCN(c2ccc([N+](=O)[O-])c(NCc3ccc(Cl)cc3)c2)CC1` [D4.112] was 361 µM; that for `N#C/C(=C\c1ccc(-c2ccc(Cl)cc2)o1)C(=O)Nc1cccc([N+](=O)[O-])c1` [D4.114] was 394 µM. On the same count and under the same terms, then `N#C/C(=C\c1ccc(N2Cc3ccccc3C2)cc1)C(=O)NCc1ccco1` [D4.118], with 456 µM. The same measure, in the same setting: then `O=C(c1cc(C(=O)N2CCOCC2)cc([N+](=O)[O-])c1)N1CCOCC1` [D5.009], with 10.7 µM.

The assay is the same for the next values; noted with them: values without "*" = IC-50; read-out: IC50DPIV.
For `N#CC1=C(N)C(C#N)(C#N)C(c2ccccc2)C2CNCC=C12` (centres unmarked) [D4.007], the IC50 is 6.9 µM. Still for that read-out and setting: then `N#CC1=C(N)C(C#N)(C#N)C(c2ccccc2F)C2CNCC=C12` (centres unmarked) [D4.009], with 7.4 µM. Still for that read-out and setting: then `Cc1cccc(C2N(CC(C)C)CC(C(=O)c3c(C)cccc3C)N2CCCN2CCCC2=O)c1` (centres unmarked) [D4.010], with 7.5 µM; and `O=C1CSCC(=O)N1c1cc(Cl)cc(Cl)c1` [D4.011], with 8.5 µM; and `Nc1nonc1-n1nnc(C(=O)NN=C2c3ccccc3-c3ccccc32)c1-c1ccccc1` [D4.013], with 10.1 µM. On to `CCOC(=O)c1ccc(N2C(=O)CSCC2=O)cc1` [D4.015], for which the IC50 is 12.2 µM. Still for that read-out and setting: then `O=C1C=C(c2cccc([N+](=O)[O-])c2)C(=O)N1c1ccc(Cl)cc1` [D4.016], with 12.3 µM; and `CCOC(=O)CN(Cc1ccccc1)c1ccc(N2C(=O)CCCC2=O)cc1[N+](=O)[O-]` [D4.017], with 13.5 µM; and `CCCn1c(N2CCN(CC(=O)c3c(C)n(C)c4ccccc34)CC2)nc2c1c(=O)[nH]c(=O)n2C` [D4.019], with 15.2 µM.

Take `CCCC(=O)O/N=C1\C(=O)N(c2ccccc2)c2ccccc21` [D4.020]: the IC50 turned out to be 15.2 µM. The same measure, in the same setting: then `COC(=O)C(CC(C)C)Nc1ccc(N2C(=O)CCCC2=O)cc1[N+](=O)[O-]` (centres unmarked) [D4.021], with 15.4 µM; and `CC(=O)Oc1cccc(N2C(=O)c3ccc(C(=O)NCc4ccc(C(=O)O)cc4)cc3C2=O)c1` [D4.023], with 18.2 µM; and `COc1ccc(N2CCN(c3nc4c(c(=O)[nH]c(=O)n4C)n3Cc3ccccc3)CC2)cc1` [D4.024], with 19.2 µM. Same read-out and setting: then `Cc1cc(Nc2ccc(N3C(=O)CCCC3=O)cc2[N+](=O)[O-])no1` [D4.025], with 20 µM. Still for that read-out and setting: then `O=C1c2ccc(Oc3ccc([N+](=O)[O-])cc3[N+](=O)[O-])cc2C(=O)N1c1ccccc1` [D4.028], with 20.6 µM; and `NS(=O)(=O)c1ccc(N2C(=O)CCCC2=O)cc1` [D4.030], with 21 µM; and `N#C/C(=C\c1ccc(N2CCCCC2)c([N+](=O)[O-])c1)c1nn(CCO)c(N)c1C#N` [D4.032], with 23.6 µM.

With `COc1ccc(/C=N/n2c(N(C(C)=O)C(C)=O)nc(-c3ccccc3)c2-c2ccccc2)cc1` [D4.034], the IC50 is 24.3 µM. The same measure, in the same setting: then `O=C1CCCC(=O)N1c1ccc(N2CCN(Cc3ccccc3)CC2)c([N+](=O)[O-])c1` [D4.035], with 24.5 µM; and `O=C1c2ccc(-c3nc4ccccc4c(=O)o3)cc2C(=O)N1c1ccc(Cc2ccc(N3C(=O)c4ccc(-c5nc6ccccc6c(=O)o5)cc4C3=O)cc2)cc1` [D4.037], with 27.7 µM.

On to `COC1CC2=C(CC1OC)CC(C)(C)NC2` (centres unmarked) [D4.039], for which the IC50 came to 28.8 µM.

As for `COc1ccc(Cl)cc1N1C(=O)CSCC1=O` [D4.041], the IC50 came out at 30.7 µM. The same measure, in the same setting: then `O=C1NCCCCC1Nc1ccc(N2C(=O)CCCC2=O)cc1[N+](=O)[O-]` (centres unmarked) [D4.044], with 34.1 µM; and `CCOC(=O)c1c(C)oc2c1c1c(c3ccccc32)OCN(C2CCS(=O)(=O)C2)C1` (centres unmarked) [D4.045], with 34.2 µM. Still for that read-out and setting: then `CC1=C(C#N)C(=O)N(CCCO)C(=O)/C1=C\c1ccc(-c2cc(C)c(C)cc2[N+](=O)[O-])o1` [D4.046], with 34.8 µM. On the same count and under the same terms, the value for `COc1cc(N2C(=O)CSCC2=O)c(Cl)cc1Cl` [D4.047] was 35.3 µM; that for `CCOCCCNc1ccc(N2C(=O)CCCC2=O)cc1[N+](=O)[O-]` [D4.048] was 36.8 µM; that for `CCOC(=O)c1c(C)nn(-c2ccc(N3C(=O)CSCC3=O)cc2)c1C` [D4.049] was 37.4 µM.

As to `O=C1NC23NC(=O)NC2(N1)c1ccccc1-c1ccccc13` (centres unmarked) [D4.053], the IC50 was determined as 43.1 µM.

For the compound `C=CCOC(=O)c1cc(-c2ccc(/C=C3/C(=O)N(CCCO)C(=O)C(C#N)=C3C)o2)ccc1Cl` [D4.054], the IC50 is 44.6 µM. On the same count and under the same terms, the value for `CC1=C(C#N)C(=O)N(CCc2ccccc2)C(=O)/C1=C/c1ccc(-c2ccc(S(N)(=O)=O)cc2)o1` [D4.057] was 48.2 µM. Still for that read-out and setting: the value for `CCCCOC(=O)c1cc(-c2ccc(/C=C3/C(=O)N(CC(C)O)C(=O)C(C#N)=C3C)o2)ccc1Cl` (centres unmarked) [D4.059] was 49 µM; that for `O=C(Oc1csc(-c2cccnc2)n1)C1CC1` [D4.061] was 52.5 µM. The same measure, in the same setting: the value for `COc1ccc(CCN(C)c2ccc(N3C(=O)CCCC3=O)cc2[N+](=O)[O-])cc1OC` [D4.062] was 52.6 µM; that for `O=C1CCCC(=O)N1c1ccc(NCCc2ccc(O)cc2)c([N+](=O)[O-])c1` [D4.064] was 54.9 µM. For `O=C1CCCC(=O)N1c1ccc(NCCOCCO)c([N+](=O)[O-])c1` [D4.065], the IC50 stood at 55 µM. On the same count and under the same terms, then `CCOc1ccc(/C=N/NC(=O)c2cc(-c3c(OC)ccc4ccccc34)n[nH]2)cc1` [D4.068], with 56.2 µM. Same read-out and setting: the value for `CCOC(=O)c1cc(-c2ccc(/C=C3/C(=O)NC(=O)C(C#N)=C3C)o2)ccc1Cl` [D4.069] was 56.7 µM; that for `NC(=O)C1CCN(c2ccc(N3C(=O)CCCC3=O)cc2[N+](=O)[O-])CC1` [D4.070] was 57 µM; that for `COc1ccc(C2(N3CCCC3)Oc3ccccc3C(C#Cc3ccccc3)=C2C)cc1` (centres unmarked) [D4.071] was 60.7 µM. Still for that read-out and setting: then `C/C(=C\c1ccc(C(C)C)cc1)C1NCC(c2ccc([N+](=O)[O-])cc2)O1` (centres unmarked) [D4.072], with 65 µM; and `CC(=O)Oc1cccc(N2C(=O)C3C(C2=O)C2(C)C=CC3(C)O2)c1` (centres unmarked) [D4.073], with 65.6 µM. With `CCOC(=O)c1ccc(-c2ccc(/C=C3\C(=O)N(CCO)C(=O)C(C#N)=C3C)o2)cc1` [D4.074], the IC50 stood at 65.9 µM. Still for that read-out and setting: the value for `O=C1C(N2CCOCC2)=C(Cl)/C(=N/S(=O)(=O)c2ccc(Cl)cc2)C(Cl)(Cl)C1(Cl)Cl` [D4.075] was 66.6 µM; that for `COc1ccccc1C1NCC(c2ccc([N+](=O)[O-])cc2)O1` (centres unmarked) [D4.077] was 70.1 µM; that for `CCOC(=O)N1CCN(c2ccc(N3C(=O)CCCC3=O)cc2[N+](=O)[O-])CC1` [D4.078] was 70.4 µM. On the same count and under the same terms, the value for `CC1=C(C#N)C(=O)N(CC(C)O)C(=O)/C1=C/c1ccc(-c2ccc(Br)cc2)o1` (centres unmarked) [D4.080] was 73.8 µM; that for `CCCOC(=O)c1cc(-c2ccc(/C=C3\C(=O)N(CCCO)C(=O)C(C#N)=C3C)o2)ccc1Cl` [D4.081] was 76.3 µM. On the same count and under the same terms, then `CCCOC(=O)c1cc(-c2ccc(/C=C3/C(=O)N(CC(C)O)C(=O)C(C#N)=C3C)o2)ccc1Cl` (centres unmarked) [D4.083], with 82.2 µM; and `NCc1ccccc1-n1cccc1` [D4.085], with 92.5 µM. As to `O=C1CSCC(=O)N1c1ccc(F)cc1` [D4.086], the IC50 came out at 94.5 µM. Still for that read-out and setting: the value for `CC1=C(C#N)C(=O)N=C(O)/C1=C\c1ccc(-c2ccc(Cl)cc2Cl)o1` [D4.087] was 95.8 µM; that for `Cc1[nH]c2ccccc2c1C(c1cc(Cl)ccc1O)N1CCOCC1` (centres unmarked) [D5.007] was 12.1 µM; that for `COc1ccc(N2CCN(c3nc4c(c(=O)[nH]c(=O)n4C)n3Cc3ccccc3)CC2)cc1` [D5.020] was 19.2 µM. Consider `CCOC(=O)C(NC(=O)c1ccc(OC)cc1)(N1CCOCC1)C(F)(F)F` (centres unmarked) [D5.021], for which the IC50 was found to be 29.2 µM.

Consider `CCCn1c(N2CCN(CC(=O)c3c(C)n(C)c4ccccc34)CC2)nc2c1c(=O)[nH]c(=O)n2C` [D5.023], for which the IC50 amounted to 30.8 µM. Regarding `O=C1NCCCCC1Nc1ccc(N2C(=O)CCCC2=O)cc1[N+](=O)[O-]` (centres unmarked) [D5.026], the IC50 turned out to be 34.1 µM.

For `Cc1ccc(C(=O)N/C(=C\c2ccco2)C(=O)N2CCOCC2)cc1C` [D5.033], the IC50 was 46.5 µM.

As to `Cn1c(=O)n(Cc2ccccc2)c(=O)c2c1nc(N1CCNCC1)n2Cc1ccccc1` [D5.034], the IC50 is 48.3 µM.
